Patent US8148391B2 (Cephalon, Inc., priority 2006, dated 2012)
Where two headings read alike, the source gives them in different places. One block for each compound: values may come before it.

Key:
[1] = molecular target: T1, c-Met (cytoplasmic domain) (Homo sapiens, UniProt P08581); experiment: c-Met Kinase Assay (same methods as for ALK, with modifications); type: biochemical
T1 construct: 10 ng/mL c-Met (cytoplasmic domain, Invitrogen Corporation #PV3143); purchased Invitrogen Corporation PV3143
T1 sequence (P08581 956-1390 limits assumed): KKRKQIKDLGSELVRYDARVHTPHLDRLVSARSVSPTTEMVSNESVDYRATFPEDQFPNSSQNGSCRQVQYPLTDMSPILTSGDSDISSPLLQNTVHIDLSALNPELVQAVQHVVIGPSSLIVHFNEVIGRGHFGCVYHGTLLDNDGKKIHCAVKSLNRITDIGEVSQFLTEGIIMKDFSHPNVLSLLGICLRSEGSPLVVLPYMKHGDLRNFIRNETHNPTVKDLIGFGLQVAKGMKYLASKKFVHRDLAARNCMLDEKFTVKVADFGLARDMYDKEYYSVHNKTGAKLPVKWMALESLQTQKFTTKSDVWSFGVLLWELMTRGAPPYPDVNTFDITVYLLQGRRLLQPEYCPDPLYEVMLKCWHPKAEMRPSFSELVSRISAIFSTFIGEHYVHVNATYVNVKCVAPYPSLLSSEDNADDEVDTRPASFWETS
Procedure, shortened: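 This plate-based kinase format uses immobilized phospholipase C-γ as substrate, phosphorylated by c-Met cytoplasmic domain (10 ng/mL) at 37° C for 15 minutes.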

[2] = molecular target: T2, baculovirus-expressed ALK (Homo sapiens, UniProt Q9UM73); experiment: ALK Kinase Assay (ELISA-type, time-resolved fluorescence); type: biochemical
T2 construct: host or cells: baculovirus expression system
T2 sequence (Q9UM73 19-1620): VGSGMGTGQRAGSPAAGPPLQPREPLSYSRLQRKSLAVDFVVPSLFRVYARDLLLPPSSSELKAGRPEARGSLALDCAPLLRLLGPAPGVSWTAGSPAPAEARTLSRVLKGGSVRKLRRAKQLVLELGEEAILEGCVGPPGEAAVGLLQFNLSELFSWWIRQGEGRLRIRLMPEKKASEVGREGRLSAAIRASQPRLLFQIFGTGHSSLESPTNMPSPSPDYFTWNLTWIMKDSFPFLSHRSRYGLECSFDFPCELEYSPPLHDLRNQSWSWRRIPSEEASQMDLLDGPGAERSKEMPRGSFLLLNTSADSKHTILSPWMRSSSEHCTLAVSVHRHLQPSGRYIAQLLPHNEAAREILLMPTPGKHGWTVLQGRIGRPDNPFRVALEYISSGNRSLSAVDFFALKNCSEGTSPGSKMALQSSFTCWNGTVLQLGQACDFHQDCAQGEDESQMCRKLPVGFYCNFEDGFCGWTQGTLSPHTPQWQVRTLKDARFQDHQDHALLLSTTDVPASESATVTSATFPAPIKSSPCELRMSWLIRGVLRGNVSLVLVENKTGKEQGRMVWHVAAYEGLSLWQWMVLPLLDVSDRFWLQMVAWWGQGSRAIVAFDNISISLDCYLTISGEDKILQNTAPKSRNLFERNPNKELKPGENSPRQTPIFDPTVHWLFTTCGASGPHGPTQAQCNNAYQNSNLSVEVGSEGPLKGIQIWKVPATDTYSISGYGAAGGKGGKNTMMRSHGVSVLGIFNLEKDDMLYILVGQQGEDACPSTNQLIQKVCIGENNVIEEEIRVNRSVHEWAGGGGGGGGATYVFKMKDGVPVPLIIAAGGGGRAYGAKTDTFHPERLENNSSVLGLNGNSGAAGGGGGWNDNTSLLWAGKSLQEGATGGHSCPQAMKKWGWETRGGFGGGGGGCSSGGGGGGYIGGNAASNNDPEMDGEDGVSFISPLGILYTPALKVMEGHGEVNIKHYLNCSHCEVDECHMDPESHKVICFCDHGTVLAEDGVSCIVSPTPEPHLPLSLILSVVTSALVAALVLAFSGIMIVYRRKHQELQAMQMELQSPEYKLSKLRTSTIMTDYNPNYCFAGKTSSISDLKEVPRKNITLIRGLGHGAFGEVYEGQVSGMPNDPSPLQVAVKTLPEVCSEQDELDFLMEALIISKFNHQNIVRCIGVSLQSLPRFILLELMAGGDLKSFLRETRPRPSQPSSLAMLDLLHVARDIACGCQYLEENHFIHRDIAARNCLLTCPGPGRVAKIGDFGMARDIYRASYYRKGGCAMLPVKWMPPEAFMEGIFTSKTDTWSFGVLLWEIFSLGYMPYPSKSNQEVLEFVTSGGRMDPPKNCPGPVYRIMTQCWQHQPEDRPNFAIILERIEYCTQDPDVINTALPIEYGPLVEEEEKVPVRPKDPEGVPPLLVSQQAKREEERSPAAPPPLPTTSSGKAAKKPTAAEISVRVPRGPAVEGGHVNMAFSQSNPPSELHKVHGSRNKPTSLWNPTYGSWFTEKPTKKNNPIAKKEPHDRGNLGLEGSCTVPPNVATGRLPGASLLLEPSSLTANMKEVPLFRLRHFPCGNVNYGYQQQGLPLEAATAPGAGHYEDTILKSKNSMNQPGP
Procedure, shortened: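 Substrate coating: phospholipase C-γ, 10 μg/mL in TBS. Kinase step: 30 ng/ml ALK, 15 min, 37° C. Detection and analysis: Eu-N1 PT66 antibody, with IC50 fitted as a sigmoidal variable-slope dose-response curve.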

[3] = 1 μM ATP (Km level), read-out: cMet Activity (c-Met Kinase Inhibition, IC50)
[4] = 1 μM ATP (Km level), read-out: ALK Activity (ALK Kinase Inhibition, IC50)
[5] = c-Met kinase inhibition, 1 μM ATP (Km level), read-out: cMet Activity
[6] = ALK kinase inhibition, 1 μM ATP (Km level), read-out: ALK Activity
[7] = c-Met kinase inhibition, 1 μM ATP, read-out: cMet Activity
[8] = ALK kinase inhibition, 1 μM ATP, read-out: ALK Activity
[9] = 1 μM ATP (Km level), 10 ng/mL c-Met, read-out: cMet Activity (c-Met kinase inhibition, IC50 class)
[10] = 1 μM ATP (Km level), 30 ng/ml ALK, 37° C., 15 minutes, read-out: ALK Activity (ALK kinase inhibition, IC50 class)

Compound: CCN1C(=O)C(NC(=O)C(F)(F)F)CCc2c1ccc(Nc1ncc(Cl)c(Nc3ccccc3S(=O)(=O)N(C)C)n1)c2OC (centres unmarked) [Example 1334, N-{7-[5-Chloro-4-(2-dimethylsulfamoyl-phenylamino)-pyrimidin-2-ylamino]-1-ethyl-6-methoxy-2-oxo-2,3,4,5-tetrahydro-1H-benzo[b]azepin-3-yl}-2,2,2-trifluoro-acetamide]
- IC50 [1, 9]: > 10000 nM
- IC50 [2, 10]: < 100 nM

Compound: COc1cc2c(cc1Nc1ncc(Cl)c(Nc3ccccc3S(=O)(=O)N3CC[C@H](O)C3)n1)CCN(CC(=O)N(C)C)CC2 [Example 1206, 2-(7-{5-Chloro-4-[2-((S)-3-hydroxy-pyrrolidine-1-sulfonyl)-phenylamino]-pyrimidin-2-ylamino}-8-methoxy-1,2,4,5-tetrahydro-benzo[d]azepin-3-yl)-N,N-dimethyl-acetamide]
- IC50 [1, 9]: 1000 to 10000 nM
- IC50 [2, 10]: < 100 nM

Compound: COCCN1CCc2ccc(Nc3ncc(Cl)c(NC4CCCCC4)n3)cc2CC1 [Example 1377, 5-Chloro-N(4)-cyclohexyl-N(2)-[3-(2-methoxy-ethyl)-2,3,4,5-tetrahydro-1H-benzo[d]azepin-7-yl]-pyrimidine-2,4-diamine]
- IC50 [1, 9]: 100 to 1000 nM
- IC50 [2, 10]: < 100 nM

Compound: COc1cc2c(cc1Nc1ncc(Cl)c(Nc3ccccc3S(=O)(=O)N(C)C)n1)CCN(CCS(C)(=O)=O)CC2 [Example 1152, 2-{5-Chloro-2-[3-(2-methanesulfonyl-ethyl)-8-methoxy-2,3,4,5-tetrahydro-1H-benzo[d]azepin-7-ylamino]-pyrimidin-4-ylamino}-N,N-dimethyl-benzenesulfonamide]
- IC50 [1, 9]: 1000 to 10000 nM
- IC50 [2, 10]: < 100 nM

Compound: COc1cc2c(cc1Nc1ncc(Cl)c(Nc3ccccc3S(=O)(=O)N3CCCC3)n1)CCN(CC(C)O)CC2 (centres unmarked) [Example 1553, 1-(7-{5-Chloro-4-[2-(pyrrolidine-1-sulfonyl)-phenylamino]-pyrimidin-2-ylamino}-8-methoxy-1,2,4,5-tetrahydro-3-benzazepin-3-yl)-propan-2-ol]
- IC50 [1, 7]: 100 to 1000 nM
- IC50 [2, 8]: < 100 nM

Compound: CNC(=O)c1cccc(F)c1Nc1nc(Nc2ccc3c(c2)NC(=O)CCO3)ncc1Cl [Example 1221, 2-[5-Chloro-2-(8-oxo-6,7,8,9-tetrahydro-5-oxa-9-aza-benzocyclohepten-2-ylamino)-pyrimidin-4-ylamino]-3-fluoro-N-methyl-benzamide]
- IC50 [1, 9]: < 100 nM
- IC50 [2, 10]: 100 to 1000 nM

Compound: CCN1CC2CCC(C1)c1cc(Nc3ncc(Cl)c(Nc4ccccc4S(=O)(=O)NC)n3)ccc12 (centres unmarked) [Example 272, 2-[5-Chloro-2-(10-ethyl-10-aza-tricyclo[6.3.2.0*2,7*]trideca-2,4,6-trien-4-ylamino)-pyrimidin-4-ylamino]-N-methyl-benzenesulfonamide]
- IC50 [1, 5]: 100 to 1000 nM
- IC50 [2, 6]: < 100 nM

Compound: COc1c(Nc2ncc(Cl)c(N[C@H]3[C@@H](C(N)=O)[C@@H]4C=C[C@H]3C4)n2)ccc2c1CCC(=O)CC2 [Example 869, (1S,2S,3R,4R)-3-[5-Chloro-2-(1-methoxy-7-oxo-6,7,8,9-tetrahydro-5H-benzocyclohepten-2-ylamino)-pyrimidin-4-ylamino]-bicyclo[2.2.1]hept-5-ene-2-carboxylic acid amide]
- IC50 [1, 3]: > 10000 nM
- IC50 [2, 4]: < 100 nM

Compound: CCN1C2CCC1c1c(ccc(Nc3ncc(Cl)c(Nc4ccccc4C(=O)NC)n3)c1Cl)C2 (centres unmarked) [Example 73, 2-[5-Chloro-2-(3-chloro-12-ethyl-12-aza-tricyclo[7.2.1.0*2,7*]dodeca-2(7),3,5-trien-4-ylamino)-pyrimidin-4-ylamino]-N-methyl-benzamide]
- IC50 [1, 5]: 100 to 1000 nM
- IC50 [2, 6]: < 100 nM

Now from value to compound:

- IC50 [1, 3]: > 10000 nM
- IC50 [2, 4]: < 100 nM
Compound: CCN1CC(=O)N(C)c2cc(Nc3ncc(Cl)c(Nc4ccc(OC)cc4-n4cccn4)n3)c(OC)cc2C1 [Example 742, 8-[5-Chloro-4-(4-methoxy-2-pyrazol-1-yl-phenylamino)-pyrimidin-2-ylamino]-4-ethyl-7-methoxy-1-methyl-1,3,4,5-tetrahydro-benzo[e][1,4]diazepin-2-one]

- IC50 [1, 5]: 1000 to 10000 nM
- IC50 [2, 6]: < 100 nM
Compound: COCCN1CCc2ccc(Nc3ncc(Cl)c(N[C@@H]4[C@H](C(N)=O)[C@@H]5C=C[C@H]4C5)n3)cc2CC1 (relative stereo) [Example 459, (2-endo, 3-endo)-3-{5-Chloro-2-[3-(2-methoxy-ethyl)-2,3,4,5-tetrahydro-1H-benzo[d]azepin-7-ylamino]-pyrimidin-4-ylamino}-bicyclo[2.2.1]hept-5-ene-2-carboxylic acid amide]

- IC50 [1, 7]: < 100 nM
- IC50 [2, 8]: < 100 nM
Compound: CCN1C(=O)CCC(C)(C)c2ccc(Nc3ncc(Cl)c(Nc4ccccc4C(=O)NC)n3)cc21 [Example 1589, 2-[5-Chloro-2-(1-ethyl-5,5-dimethyl-2-oxo-2,3,4,5-tetrahydro-1H-benzo[b]azepin-8-ylamino)-pyrimidin-4-ylamino]-N-methyl-benzamide]

- IC50 [1, 9]: < 100 nM
- IC50 [2, 10]: 100 to 1000 nM
Compound: CNC(=O)c1cccc(F)c1Nc1nc(Nc2ccc3c(c2)-n2cccc2C(=O)CO3)ncc1Cl [Example 1268, 2-[5-Chloro-2-(4-oxo-4,5-dihydro-6-oxa-10b-aza-benz[e]azulen-9-ylamino)-pyrimidin-4-ylamino]-3-fluoro-N-methyl-benzamide]

- IC50 [1, 7]: 100 to 1000 nM
- IC50 [2, 8]: < 100 nM
Compound: COc1cc2c(cc1Nc1ncc(Cl)c(Nc3ccccc3S(=O)(=O)N3CC[C@H](O)C3)n1)CCN(CC(C)(C)O)CC2 [Example 1562, (S)-1-(2-{5-Chloro-2-[3-(2-hydroxy-2-methyl-propyl)-8-methoxy-2,3,4,5-tetrahydro-1H-3-benzazepin-7-ylamino]-pyrimidin-4-ylamino}-benzenesulfonyl)-pyrrolidin-3-ol]

- IC50 [1, 5]: > 10000 nM
- IC50 [2, 6]: < 100 nM
Compound: COc1cc2c(cc1Nc1ncc(Cl)c(Nc3ccc(N4CCOCC4)cc3OC)n1)N(C)CCN(S(C)(=O)=O)C2 [Example 494, 5-Chloro-N*2*-(4-methanesulfonyl-7-methoxy-1-methyl-2,3,4,5-tetrahydro-1H-benzo[e][1,4]diazepin-8-yl)-N*4*-(2-methoxy-4-morpholin-4-yl-phenyl)-pyrimidine-2,4-diamine]

- IC50 [1, 5]: < 100 nM
- IC50 [2, 6]: < 100 nM
Compound: CNC(=O)c1ccccc1Nc1nc(Nc2ccc3c(c2)COCC2CCCCN32)ncc1Cl (centres unmarked) [Example 14, 2-[5-Chloro-2-(7,7a,8,9,10,11-hexahydro-5H-6-oxa-11a-aza-dibenzo[a,c]cyclohepten-3-ylamino)-pyrimidin-4-ylamino]-N-methyl-benzamide]

- IC50 [1, 7]: > 10000 nM
- IC50 [2, 8]: < 100 nM
Compound: COc1cc2c(cc1Nc1ncc(Cl)c(N[C@H]3[C@@H](C(N)=O)[C@@H]4C=C[C@H]3C4)n1)CCN(C[C@@H](C)O)CC2 [Example 1559, (1S,2S,3R,4R)-3-{5-Chloro-2-[3-((R)-2-hydroxy-propyl)-8-methoxy-2,3,4,5-tetrahydro-1H-3-benzazepin-7-ylamino]-pyrimidin-4-ylamino}-bicyclo[2.2.1]hept-5-ene-2-carboxylic acid amide]

- IC50 [1, 9]: 100 to 1000 nM
- IC50 [2, 10]: 100 to 1000 nM
Compound: COCCN1CCc2ccc(Nc3ncc(Cl)c(Nc4ccccc4C(=O)NCCN4CCCC4)n3)cc2CC1 [Example 1416, 2-{5-Chloro-2-[3-(2-methoxy-ethyl)-2,3,4,5-tetrahydro-1H-benzo[d]azepin-7-ylamino]-pyrimidin-4-ylamino}-N-(2-pyrrolidin-1-yl-ethyl)-benzamide]

- IC50 [1, 5]: 1000 to 10000 nM
- IC50 [2, 6]: < 100 nM
Compound: N-(2-{5-Chloro-2-[3-methyl-5-oxo-1-(2,2,2-trifluoro-acetyl)-2,3,4,5-tetrahydro-1H-benzo[e][1,4]diazepin-6-ylamino]-pyrimidin-4-ylamino}-phenyl)-methanesulfonamide and N-(2-{5-Chloro-2-[2-methyl-5-oxo-1-(2,2,2-trifluoro-acetyl)-2,3,4,5-tetrahydro-1H-benzo[e][1,4]diazepin-6-ylamino]-pyrimidin-4-ylamino}-phenyl)-methanesulfonamide (Mixture of regioisomers) [Example 230]

- IC50 [1, 3]: > 10000 nM
- IC50 [2, 4]: < 100 nM
Compound: COc1ccc(Nc2nc(Nc3cc4c(cc3OC)CCN(CC(=O)N(C)C)CC4)ncc2Cl)c(N(C)C)c1 [Example 826, 2-{7-[5-Chloro-4-(2-dimethylamino-4-methoxy-phenylamino)-pyrimidin-2-ylamino]-8-methoxy-1,2,4,5-tetrahydro-benzo[d]azepin-3-yl}-N,N-dimethyl-acetamide]

- IC50 [1, 3]: > 10000 nM
- IC50 [2, 4]: 100 to 1000 nM
Compound: COc1c(Nc2ncc(Cl)c(N[C@H]3[C@@H](C(N)=O)[C@@H]4C=C[C@H]3C4)n2)ccc2c1C(=O)C[C@@H](NC(C)=O)CC2 [Example 632, (1S,2S,3R,4R)-3-[2-((S)-7-Acetylamino-1-methoxy-9-oxo-6,7,8,9-tetrahydro-5H-benzocyclohepten-2-ylamino)-5-chloro-pyrimidin-4-ylamino]-bicyclo[2.2.1]hept-5-ene-2-carboxylic acid amide]

- IC50 [1, 7]: 100 to 1000 nM
- IC50 [2, 8]: 1000 to 10000 nM
Compound: CNC(=O)c1cccc(Cl)c1Nc1nc(Nc2ccc3c(c2)-n2ccnc2CCC3)ncc1Cl [Example 1839, 2-[5-Chloro-2-(5,6-dihydro-4H-3,10b-diaza-benzo[e]azulen-9-ylamino)-pyrimidin-4-ylamino]-3-chloro-N-methyl-benzamide]
